Measured values reported in patent US20240066155A1, “DUAL MODE RADIOTRACER AND -THERAPEUTICS” (priority 2021, published 2024).
Values joined by “and” are separate entries in the source; they are usually repeats but may differ in a detail not shown here. Identical values can stand only once.

Tests used:
LNCaP cells = assay: PSMA-mediated internalization into LNCaP cells; type: cell-based; conditions: 1 h, 37° C., percentage of reference ligand ([125I]BA)KuE, n=3
Method: (§1) Competitive binding studies were determined on LNCaP cells (1.5×10^5 cells in 1 mL/well) after incubation at 4° C. for 1 h, using (((S)-1-carboxy-5-(4-([^125I]iodo)benzamido)pentyl)carbamoyl)-L-glutamic acid ([^125I]BA)KuE; 0.2 nM/well) as reference radioligand (n=3). Internalization studies of the radiolabeled ligands (1.0 nM/well) were performed on LNCaP cells (1.25×10^5 cells in 1 mL/well) at 37° C. for 1 h and accompanied by ([^125I]BA)KuE (0.2 nM/well), as reference. Data were corrected for non-specific binding and normalized to the specific internalization observed for the reference (n=3). A detailed description of the experimental procedures was previously published (Wurzer A, et al. J Nucl Med. 2020; 61: 735-742).

human serum albumin = target: T1, human serum albumin (Homo sapiens, UniProt P02768); assay: Binding to human serum albumin by albumin mediated size exclusion chromatography (AMSEC); type: in vitro ADME; conditions: size exclusion chromatography with HSA in the mobile phase, 177Lu-labeled
T1 construct: purchased Biowest, Nuaillé, France
T1 sequence (P02768 25-609): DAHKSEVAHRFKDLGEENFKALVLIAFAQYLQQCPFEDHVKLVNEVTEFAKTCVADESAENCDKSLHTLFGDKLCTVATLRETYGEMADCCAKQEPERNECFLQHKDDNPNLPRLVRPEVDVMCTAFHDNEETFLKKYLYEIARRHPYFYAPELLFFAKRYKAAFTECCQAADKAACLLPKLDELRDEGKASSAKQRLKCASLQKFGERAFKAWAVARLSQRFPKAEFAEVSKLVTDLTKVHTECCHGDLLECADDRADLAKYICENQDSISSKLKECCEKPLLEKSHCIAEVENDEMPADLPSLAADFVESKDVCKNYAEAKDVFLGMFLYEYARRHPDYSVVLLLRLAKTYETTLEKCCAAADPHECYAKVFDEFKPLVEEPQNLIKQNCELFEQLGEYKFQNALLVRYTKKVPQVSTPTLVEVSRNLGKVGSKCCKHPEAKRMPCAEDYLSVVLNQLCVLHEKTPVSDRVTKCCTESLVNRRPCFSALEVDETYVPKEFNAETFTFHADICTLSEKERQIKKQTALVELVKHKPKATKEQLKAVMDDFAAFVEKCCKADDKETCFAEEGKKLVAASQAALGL
Method: Binding of ^177Lu-labeled ligands to HSA was assessed by albumin mediated size exclusion chromatography (AMSEC). A gel filtration size exclusion column (Superdex 75 Increase 10/300 GL, GE Healthcare, Uppsala, Sweden) was used with HSA buffer at physiological concentration (700 μM, Biowest, Nuaillé, France) as mobile phase (constant flow rate of 0.8 mL/min at room temperature). For calibration purposes, a commercially available set of proteins (GE Healthcare, Buckinghamshire, UK) was used. Under these chromatographic conditions, the retention time of a radioligand (1.0 MBq, 10-20 GBq/μmol) depends on the extent of HSA/ligand interactions and thus, by means of the calibration with the aforementioned set of proteins, can be translated into an AMW (expressed in kDa) as a parameter allowing to quantify the extent of HSA binding. The detection window ranges between 2.3 kDa ([^18F]Fluoride; no HSA interaction) and 70.2 kDa (experimental molecular weight of HSA; maximum HSA interaction).

[1] = Lipophilicity, n-octanol/PBS (pH 7.4) distribution; type: physicochemical; conditions: n-octanol/PBS pH 7.4, 177Lu-labeled, n=6
Method: Approximately 1 MBq of the ^177Lu-labeled PSMA ligand was dissolved in 1 mL of a 1:1 mixture (v/v) of phosphate-buffered saline (PBS, pH 7.4) and n-octanol (n=6). After vigorous mixing of the suspension for 3 min, the vial was centrifuged at 15000×g for 3 min and 100 μL aliquots of both layers were measured in a γ-counter. Finally, the ratio of the radioactivity detected in the n-octanol sample and the PBS buffer was calculated and expressed as distribution ratio log D7.4.

PSMA = target: T2, PSMA (Homo sapiens, UniProt Q04609); assay: Competitive binding studies on LNCaP cells vs ([125I]BA)KuE (affinity, IC50); conditions: 1 h, 4° C., natLu complexes
T2 construct: endogenous in cells; host or cells: LNCaP cells
T2 sequence (Q04609 whole entry): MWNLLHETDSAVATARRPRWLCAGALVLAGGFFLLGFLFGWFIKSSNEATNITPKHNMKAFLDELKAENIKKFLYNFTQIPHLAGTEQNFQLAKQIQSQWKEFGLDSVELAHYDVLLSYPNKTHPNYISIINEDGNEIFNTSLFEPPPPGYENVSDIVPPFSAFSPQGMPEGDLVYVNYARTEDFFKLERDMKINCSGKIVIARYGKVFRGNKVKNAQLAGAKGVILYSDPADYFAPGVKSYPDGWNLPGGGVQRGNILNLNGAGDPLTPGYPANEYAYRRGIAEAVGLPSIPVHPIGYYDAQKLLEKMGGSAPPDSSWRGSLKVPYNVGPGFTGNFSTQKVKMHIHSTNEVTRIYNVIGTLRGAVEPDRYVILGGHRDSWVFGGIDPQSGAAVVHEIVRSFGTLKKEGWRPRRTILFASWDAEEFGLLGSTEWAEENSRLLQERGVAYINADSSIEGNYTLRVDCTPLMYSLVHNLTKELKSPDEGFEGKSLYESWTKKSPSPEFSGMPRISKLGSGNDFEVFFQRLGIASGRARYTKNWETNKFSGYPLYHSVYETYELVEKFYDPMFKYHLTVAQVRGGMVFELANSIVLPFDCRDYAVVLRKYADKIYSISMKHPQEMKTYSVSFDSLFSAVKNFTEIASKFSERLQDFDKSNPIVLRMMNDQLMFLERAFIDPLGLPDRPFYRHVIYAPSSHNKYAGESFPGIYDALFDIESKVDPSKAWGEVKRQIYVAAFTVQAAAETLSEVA
Method: as §1

[2] = system: LNCaP tumor-bearing male CB-17 SCID mice; assay: Ex vivo biodistribution in LNCaP tumor-bearing CB-17 SCID mice; conditions: 24 h p.i.; for Tumor-to-organ ratio adrenals / Tumor-to-organ ratio blood / Tumor-to-organ ratio bone / Tumor-to-organ ratio heart / Tumor-to-organ ratio intestine / Tumor-to-organ ratio kidney / Tumor-to-organ ratio liver / Tumor-to-organ ratio lung / Tumor-to-organ ratio muscle / Tumor-to-organ ratio pancreas / Tumor-to-organ ratio parotid gl. / Tumor-to-organ ratio spleen / Tumor-to-organ ratio stomach / Tumor-to-organ ratio submand. gl.: n=5, mean of ratios per mouse; for Activity accumulation adrenals / Activity accumulation blood / Activity accumulation bone / Activity accumulation heart / Activity accumulation intestine / Activity accumulation kidney / Activity accumulation liver / Activity accumulation lung / Activity accumulation muscle / Activity accumulation pancreas / Activity accumulation parotid gl. / Activity accumulation spleen / Activity accumulation stomach / Activity accumulation submand. gl. / Activity accumulation tumor: n=5, mean, complete dataset
Method: All animal experiments were conducted in accordance with general animal welfare regulations in Germany (German animal protection act, as amended on 18 May 2018, Art. 141 G v. 29 Mar. 2017 I 626, approval no. 55.2-1-54-2532-71-13) and the institutional guidelines for the care and use of animals. LNCaP tumor xenografts were established in 6-8 weeks old male CB-17 SCID mice as described previously (Wurzer A, et al. J Nucl Med. 2020; 61: 735-742). Biodistribution Studies. The ^177Ludabeled PSMA inhibitors (2-5 MBq; 0.1 nmol) were injected under isoflurane anesthesia into the tail vein of LNCaP tumor-bearing male CB-17 SCID mice that were sacrificed 24 h post injection (p.i.) (n=4-5). Selected organs were removed, weighed, and measured in a counter. All rhPSMA ligands were evaluated in mice during the same time period (Q1/2020), whereas ^177Ludabeled PSMA-617 and PSMA I&T (Wirtz M, et al. EJNMMI Res. 2018; 8: 84) were assessed previously using the identical cell line, mouse model and experimental procedure.

| Compound | Internalization [% IBA-KuE] (LNCaP cells) | MWapp [kDa] (apparent molecular weight, AMW; HSA binding) (human serum albumin) | logD7.4 [1] | IC50 (PSMA; n=3) [nM] | Tumor-to-organ ratio adrenals [2] | Tumor-to-organ ratio blood [2] | Tumor-to-organ ratio bone [2] | Tumor-to-organ ratio heart [2] | Tumor-to-organ ratio intestine [2] | Tumor-to-organ ratio kidney [2] | Tumor-to-organ ratio liver [2] | Tumor-to-organ ratio lung [2] | Tumor-to-organ ratio muscle [2] | Tumor-to-organ ratio pancreas [2] | Tumor-to-organ ratio parotid gl. [2] | Tumor-to-organ ratio spleen [2] | Tumor-to-organ ratio stomach [2] | Tumor-to-organ ratio submand. gl. [2] | Activity accumulation adrenals [2] [% ID/g] | Activity accumulation blood [2] [% ID/g] | also measured |
| --- | --- | --- | --- | --- | --- | --- | --- | --- | --- | --- | --- | --- | --- | --- | --- | --- | --- | --- | --- | --- | --- |
| O=C([O-])CN1CCN(CC(=O)[O-])CCN(CC(=O)NCC2CCC(C(=O)N[C@@H](Cc3ccc4ccccc4c3)C(=O)NCCCC[C@H](NC(=O)N[C@@H](CCC(=O)O)C(=O)O)C(=O)O)CC2)CCN(CC(=O)[O-])CC1.[177Lu+3] (stereo partly drawn) [[^177Lu]PSMA-617] | 203±10 % IBA-KuE and 203.2 ± 10.1 % IBA-KuE | 13.7 | −4.1 ± 0.1 | 3.27 ± 0.19 |  |  |  |  |  |  |  |  |  |  |  |  |  |  |  |  | IC50 (PSMA; n=3, listed as [^natLu]PSMA-617): 3.3 ± 0.2 nM |
| CC(C)(C)[Si](F)(c1ccc(C(=O)NC[C@@H](NC(=O)CC[C@@H](C(=O)O)N2CCN(CC(=O)[O-])CCN(CC(=O)[O-])CCN(CC(=O)[O-])CC2)C(=O)N[C@H](CCCCNC(=O)CCC(=O)NCCC[C@@H](NC(=O)CC[C@H](NC(=O)N[C@@H](CCC(=O)O)C(=O)O)C(=O)O)C(=O)O)C(=O)O)cc1)C(C)(C)C.[Lu+3] [[^177Lu, ^19F]rhPSMA-7.3] | 184.4 ± 11.8 % IBA-KuE | 30.4 | −4.12 ± 0.11 | 3.29 ± 1 | 44.34 | 4255 | 625.98 | 542.49 | 254.02 | 1.64 | 78.11 | 239.97 | 2123.58 | 754.34 | 176.66 | 34.32 | 453.70 | 290.08 | 0.4233 | 0.0046 | Tumor-to-organ ratio blood ([2]; listed as [^177Lu]rhPSMA-7.3): 4255.56; Activity accumulation bone [2]: 0.0307 % ID/g; Activity accumulation heart [2]: 0.0333 % ID/g; Activity accumulation intestine [2]: 0.1001 % ID/g; Activity accumulation kidney [2]: 11.4±1.4 % ID/g; Activity accumulation liver [2]: 0.2352 % ID/g; Activity accumulation lung [2]: 0.0768 % ID/g; Activity accumulation muscle [2]: 0.0094 % ID/g; Activity accumulation pancreas [2]: 0.0241 % ID/g; Activity accumulation parotid gl. [2]: 0.1068 % ID/g; Activity accumulation spleen [2]: 0.5817 % ID/g; Activity accumulation stomach [2]: 0.0434 % ID/g; Activity accumulation submand. gl. [2]: 0.0644 % ID/g; Activity accumulation tumor ([2]; LNCaP tumor): 18.1740 % ID/g; Activity accumulation kidney ([2]; listed as [^177Lu]rhPSMA-7.3): 11.3738 % ID/g |
| CC(C)(C)[Si](F)(c1ccc(C(=O)NC[C@H](NC(=O)CC[C@@H](C(=O)O)N2CCN(CC(=O)[O-])CCN(CC(=O)[O-])CCN(CC(=O)[O-])CC2)C(=O)N[C@H](CCCCNC(=O)CCC(=O)NCCC[C@@H](NC(=O)CC[C@H](NC(=O)N[C@@H](CCC(=O)O)C(=O)O)C(=O)O)C(=O)O)C(=O)O)cc1)C(C)(C)C.[Lu+3] [[^177Lu, ^19F]rhPSMA-7.4] | 190.4 ± 10.5 % IBA-KuE | 35.7 | −4.10 ± 0.14 | 3.06 ± 1.51 |  |  |  |  |  |  |  |  |  |  |  |  |  |  |  |  |  |
| O=C([O-])CN1CCN(CC(=O)[O-])CCN(C(CCC(=O)N[C@H](Cc2ccc(O)c(I)c2)C(=O)N[C@H](Cc2ccccc2)C(=O)N[C@H](CCCCNC(=O)CCCCCCC(=O)NCCCC[C@H](NC(=O)N[C@@H](CCC(=O)O)C(=O)O)C(=O)O)C(=O)O)C(=O)O)CCN(CC(=O)[O-])CC1.[Lu+3] (stereo partly drawn) [[^177Lu]PSMA I&T] | 145±14 % IBA-KuE and 145.4 ± 13.8 % IBA-KuE | 5.3 | −4.1 ± 0.1 | 4.17 ± 0.78 | 5.62 | 1288 | 358.26 | 366.06 | 191.31 | 0.6 | 155.09 | 65.08 | 1964.92 | 336.33 | 63.21 | 9.06 | 236.69 | 136.76 | 1.3590 | 0.0061 | Tumor uptake ([2]; LNCaP tumor): 4.1±1.1 % ID/g; Tumor-to-organ ratio blood ([2]; listed as [^177Lu] PSMA-I&T): 1288.54; Tumor-to-organ ratio kidney ([2]; listed as [^177Lu] PSMA-I&T): 0.61; Activity accumulation bone [2]: 0.0209 % ID/g; Activity accumulation heart [2]: 0.0208 % ID/g; Activity accumulation intestine [2]: 0.0507 % ID/g; Activity accumulation kidney [2]: 15.9±12.0 % ID/g; Activity accumulation liver [2]: 0.0553 % ID/g; Activity accumulation lung [2]: 0.1138 % ID/g; Activity accumulation muscle [2]: 0.0051 % ID/g; Activity accumulation pancreas [2]: 0.0295 % ID/g; Activity accumulation parotid gl. [2]: 0.1346 % ID/g; Activity accumulation spleen [2]: 1.2047 % ID/g; Activity accumulation stomach [2]: 0.0326 % ID/g; Activity accumulation submand. gl. [2]: 0.0581 % ID/g; Activity accumulation tumor ([2]; LNCaP tumor): 7.5780 % ID/g; Activity accumulation kidney ([2]; listed as [^177Lu]PSMA-I&T): 15.8527 % ID/g; IC50 (PSMA; n=3, listed as [^natLu]PSMA I&T): 4.2 ± 0.8 nM |
| CC(C)(C)[Si](F)(c1ccc(C(=O)NC[C@@H](NC(=O)CC[C@H](C(=O)O)N2CCN(CC(=O)[O-])CCN(CC(=O)[O-])CCN(CC(=O)[O-])CC2)C(=O)N[C@H](CCCCNC(=O)CCC(=O)NCCC[C@@H](NC(=O)CC[C@H](NC(=O)N[C@@H](CCC(=O)O)C(=O)O)C(=O)O)C(=O)O)C(=O)O)cc1)C(C)(C)C.[Lu+3] [[^177Lu, ^19F]rhPSMA-7.1] | 137±6 % IBA-KuE and 137.4 ± 5.8 % IBA-KuE | 26.3 | −4.27 ± 0.24 | 3.11 ± 0.64 |  |  |  |  |  |  |  |  |  |  |  |  |  |  |  |  |  |
| CC(C)(C)[Si](F)(c1ccc(C(=O)NC[C@H](NC(=O)CC[C@H](C(=O)O)N2CCN(CC(=O)[O-])CCN(CC(=O)[O-])CCN(CC(=O)[O-])CC2)C(=O)N[C@H](CCCCNC(=O)CCC(=O)NCCC[C@@H](NC(=O)CC[C@H](NC(=O)N[C@@H](CCC(=O)O)C(=O)O)C(=O)O)C(=O)O)C(=O)O)cc1)C(C)(C)C.[Lu+3] [[^177Lu, ^19F]rhPSMA-7.2] | 197.3 ± 15.0 % IBA-KuE | 31.7 | −4.25 ± 0.29 | 2.88 ± 1.06 |  |  |  |  |  |  |  |  |  |  |  |  |  |  |  |  |  |
